Measurements taken from EP0166986A1, “Disubstituted 3,7-diaryl-1,5,3,7-dioxadiazocines, and process for their preparation” (Deutsches Krebsforschungszentrum Stiftung des öffentlichen …, priority 1984, dated 1986).

Assays:
TA100 = assay: Mutagenicity test (Ames test), preincubation with or without rat liver S9; format: cell-based, S. Typhimurium
Protocol: (§1) • a) Mutagenitätsprüfungen Die Versuchsverbindung, gelöst in 40 µl an Dimethylsulphoxid und 100 µl eines Übernacht-Kulturmediums wurde zu 500 µl eines S9-Gemisches gegeben das 100 µl Leber S9 von mit Aroclor behandelten männlichen BD VI Ratten, 50 µl 0,15 M KC1 - 5 mM Sørensen Puffer pH 7,4 , […] Sørensen Phosphat Puffer (pH 7,4), […] NADP^+, 2,5 µmol Glukose-6-phosphat und […] MgC12 enthält. Das Gemisch wurde bei 37°C 30 Minuten lang unter Schütteln vorinkubiert und dann mit 2 ml histidinarmem Weichagar für die Plattenbildung auf minimalem Glukoseagar kombiniert. Die Anzahl der Revertanten wurde nach 48-stündiger Inkubation bei 37°C gezählt.
(§2) Mutagenität von synthetischen zyklischen Dioxadiazocinen in S. Typhimurium Stämmen. • a) Die meisten Zahlen entsprechen Mittelwerten aus zwei Versuchsreihen, die je dreifach gemacht wurden. Die Anzahl der spontanen Revertanten pro Platte (in Gegenwart des Lösungsmittels) wurde abgezogen. • b) AS: die Versuche wurden in Gegenwart (+) oder in Abwesenheit (-) eines metabolischen Aktivierungssystems aus S9 Rattenleber durchgeführt. • c) Die Konzentration bei welcher die untersuchten Verbindungen in S9-Mischung ausfielen.

TA98 = assay: as above; format: cell-based, S. Typhimurium
Protocol: as §1, §2

S. Typhimurium Stämmen = assay: Mutagenicity test (Ames test), summary statements not tied to one strain; format: cell-based; conditions: for Mutagenität: S. Typhimurium strains, overall result in words
Protocol: as §1, §2

[1] = TA100, +AS (rat liver S9), 30 µg pro Platte, spontaneous revertants subtracted
[2] = TA100, +AS (rat liver S9), 100 µg pro Platte, spontaneous revertants subtracted (pp'-CH3O CO precipitated in S9 mix)
[3] = TA100, +AS (rat liver S9), 300 µg pro Platte, compounds precipitated in S9 mix, spontaneous revertants subtracted
[4] = TA100, -AS, 30 µg pro Platte, spontaneous revertants subtracted
[5] = TA100, -AS, 100 µg pro Platte, spontaneous revertants subtracted
[6] = TA100, -AS, 300 µg pro Platte, spontaneous revertants subtracted
[7] = TA98, +AS (rat liver S9), 30 µg pro Platte, spontaneous revertants subtracted
[8] = TA98, +AS (rat liver S9), 100 µg pro Platte, spontaneous revertants subtracted (pp'-CH3O CO precipitated in S9 mix)
[9] = TA98, +AS (rat liver S9), 300 µg pro Platte, compounds precipitated in S9 mix, spontaneous revertants subtracted
[10] = TA98, -AS, 30 µg pro Platte, spontaneous revertants subtracted
[11] = TA98, -AS, 100 µg pro Platte, spontaneous revertants subtracted
[12] = TA98, -AS, 300 µg pro Platte, spontaneous revertants subtracted

| SMILES | Anzahl der Revertanten pro Platte (TA100; [1]) [Revertanten pro Platte] | Anzahl der Revertanten pro Platte (TA100; [2]) [Revertanten pro Platte] | Anzahl der Revertanten pro Platte (TA100; [3]) [Revertanten pro Platte] | Anzahl der Revertanten pro Platte (TA100; [4]) [Revertanten pro Platte] | Anzahl der Revertanten pro Platte (TA100; [5]) [Revertanten pro Platte] | Anzahl der Revertanten pro Platte (TA100; [6]) [Revertanten pro Platte] | Anzahl der Revertanten pro Platte (TA98; [7]) [Revertanten pro Platte] | Anzahl der Revertanten pro Platte (TA98; [8]) [Revertanten pro Platte] | Anzahl der Revertanten pro Platte (TA98; [9]) [Revertanten pro Platte] | Anzahl der Revertanten pro Platte (TA98; [10]) [Revertanten pro Platte] | Anzahl der Revertanten pro Platte (TA98; [11]) [Revertanten pro Platte] | Anzahl der Revertanten pro Platte (TA98; [12]) [Revertanten pro Platte] | Mutagenität (S. Typhimurium Stämmen) | other results |
| --- | --- | --- | --- | --- | --- | --- | --- | --- | --- | --- | --- | --- | --- | --- |
| FC(F)(F)c1ccc(N2COCN(c3ccc(C(F)(F)F)cc3)COC2)cc1 [pp'-CF3, para-Trifluormethyl-3,7-diphenyl-1,5,3,7-dioxadiazocin] | 44 | 86 | 98 | 8 | 14 | 5 | 10 | 14 | 24 | 0 | 0 | 2 | mutagen | Anzahl der Revertanten pro Platte (TA100; TA100, +AS (rat liver S9), 1000 µg pro Platte, compound precipitated in S9 mix, spontaneous revertants subtracted): 96 Revertanten pro Platte; Anzahl der Revertanten pro Platte (TA100; TA100, -AS, 1000 µg pro Platte, spontaneous revertants subtracted): 1 Revertanten pro Platte; Mutagenität (TA100; TA100, in presence of metabolic activation system, result in words): schwach mutagen; Anzahl der Revertanten pro Platte (TA98; TA98, +AS (rat liver S9), 1000 µg pro Platte, compound precipitated in S9 mix, spontaneous revertants subtracted): 12 Revertanten pro Platte; Anzahl der Revertanten pro Platte (TA98; TA98, -AS, 1000 µg pro Platte, spontaneous revertants subtracted): 0 Revertanten pro Platte |
| O=[N+]([O-])c1ccc(N2COCN(c3ccc([N+](=O)[O-])cc3)COC2)cc1 [pp'-NO2] | 78 | 195 | 357 | 31 | 100 | 206 | 88 | 280 | 507 | 163 | 373 | 839 | mutagen | Anzahl der Revertanten pro Platte (TA100; TA100, +AS (rat liver S9), 10 µg pro Platte, spontaneous revertants subtracted): 22 Revertanten pro Platte; Anzahl der Revertanten pro Platte (TA100; TA100, -AS, 10 µg pro Platte, spontaneous revertants subtracted): 13 Revertanten pro Platte; Mutagenität (Vergleich der Verbindungen) (TA100; TA100, rank among the three tested compounds): aktivste Verbindung; Mutagenität der reaktiven metabolischen Spezies (TA100; with metabolic activation, TA100 compared with TA98): nur in TA100 mutagen oder stärker mutagen; Anzahl der Revertanten pro Platte (TA98; TA98, +AS (rat liver S9), 10 µg pro Platte, spontaneous revertants subtracted): 37 Revertanten pro Platte; Anzahl der Revertanten pro Platte (TA98; TA98, -AS, 10 µg pro Platte, spontaneous revertants subtracted): 65 Revertanten pro Platte; Mutagenität (Vergleich der Verbindungen) (TA98; TA98, rank among the three tested compounds): aktivste Verbindung; direkte Mutagenität (TA98; without metabolic activation, TA98 compared with TA100): höher in TA98; direkte Mutagenität (S. Typhimurium Stämmen; without metabolic activation, result in words): direkt mutagen |
